Measurements: patent publication US20050113450A1, “Antibacterial agents” (priority 2002, published 2005)
Values after ≈ are worked out from the molar mass of the structure shown.

Test system: SA 9218
Assay: MIC by standard agar dilution method
Type: cell-based
Details: Mueller Hinton agar, 10^4 to 10^5 cells per spot, incubated overnight at 35° C., lowest concentration that inhibits visible growth
Description: The antibacterial agents of this invention have useful activity against a variety of organisms. The in vitro activity of compounds of this invention can be assessed by standard testing procedures such as the determination of minimum inhibitory concentration (MIC) by agar dilution as described in “Approved Standard. Methods for Dilution Antimicrobial Susceptibility Tests for Bacteria That Grow Aerobically”, 3rd. ed., published 1993 by the National Committee for Clinical Laboratory Standards, Villanova, Pa., USA. The in vitro MICs of test compounds were determined by a standard agar dilution method. A stock drug solution of each analog was prepared in the preferred solvent, usually DMSO:H2O (1:3). Serial 2-fold dilutions of each sample are made using 1.0 ml aliquots of sterile distilled water. To each 1.0 ml aliquot of drug was added 9 ml of molten Mueller Hinton agar medium. The drug-supplemented agar was mixed, poured into 15×100 mm petri dishes, and allowed to solidify and dry prior to inoculation. Vials of each of the test organisms are maintained frozen in the vapor phase of a liquid nitrogen freezer. Test cultures are grown overnight at 35° C. on the medium appropriate for the organism. Colonies are harvested with a sterile swab, and cell suspensions are prepared in Trypticase Soy broth (TSB) to equal the turbidity of a 0.5 McFarland standard. A 1:20 dilution of each suspension was made in TSB. The plates containing the drug supplemented agar are inoculated with a 0.001 ml drop of the cell suspension using a Steers replicator, yielding approximately 10^4 to 10^5 cells per spot. The plates are incubated overnight at 35° C. Following incubation the Minimum Inhibitory Concentration (MIC μg/ml), the lowest concentration of drug that inhibits visible growth of the organism, was read and recorded.

Compound | MIC
CCOCC(=NO)c1ccc(C(=O)Nc2ccc(Cl)cc2C(=O)O)cc1 | 64 µg/mL (≈ 170 µM)
CC(=O)Oc1ccc(N2C(=O)c3ccc(C(=O)Nc4ccc(Br)cc4C(=O)O)cc3C2=O)cc1 | 64 µg/mL (≈ 122 µM)
O=C(Nc1ccc(Cl)cc1C(=O)O)c1ccc(C(=NO)C2CCCO2)cc1 (stereo not shown) | 32 µg/mL (≈ 82.3 µM)
O=C(Nc1ccc(Br)cc1C(=O)O)c1cc(S(=O)(=O)N2CCc3ccccc32)c(F)cc1Cl | 8 µg/mL (≈ 14.4 µM)
O=C(Nc1ccc(Br)cc1C(=O)O)c1cc(S(=O)(=O)Nc2ccc3c(c2)OCCO3)ccc1Br | 0.5 µg/mL (≈ 0.817 µM)
O=C(Nc1ccc(Br)cc1C(=O)O)c1ccc(S(=O)(=O)Nc2ccc(N3CCOCC3)cc2)cc1 | 64 µg/mL (≈ 114 µM)
O=C(Nc1ccc(Br)cc1C(=O)O)c1cc(S(=O)(=O)N2CCc3ccc(Cl)cc32)ccc1Br | 2 µg/mL (≈ 3.25 µM)
O=C(Nc1ccc(Br)cc1C(=O)O)c1cc(F)ccc1F | 128 µg/mL (≈ 359 µM)
O=C(Nc1ccc(Br)cc1C(=O)O)c1cc(S(=O)(=O)N2CCc3ccc(Cl)cc32)c(F)cc1Cl | 16 µg/mL (≈ 27.2 µM)
O=C(Nc1ccc(Br)cc1C(=O)O)c1cccc(Br)c1 | 8 µg/mL (≈ 20 µM)
O=C(O)c1cc(Br)ccc1NC(=O)c1cccc2c1-c1ccccc1C2=O | 128 µg/mL (≈ 303 µM)
O=C(Nc1ccc(Br)cc1C(=O)O)c1cccc(Cl)c1 | 8 µg/mL (≈ 22.6 µM)
N#Cc1cccc(C(=O)Nc2ccc(Br)cc2C(=O)O)c1 | > 128 µg/mL
O=C(Nc1ccc(Br)cc1C(=O)O)c1cccc(F)c1 | 64 µg/mL (≈ 189 µM)
COc1cc(C(=O)Nc2ccc(Br)cc2C(=O)O)cc(OC)c1OC | 32 µg/mL (≈ 78 µM)
O=C(Nc1ccc(Br)cc1C(=O)O)c1cc(Cl)cc(Cl)c1 | 8 µg/mL (≈ 20.6 µM)
CCOC(=O)Oc1c(OC)cc(C(=O)Nc2ccc(Br)cc2C(=O)O)cc1OC | 128 µg/mL (≈ 273 µM)
COc1ccc(C(=O)Nc2ccc(Br)cc2C(=O)O)cc1OC | 128 µg/mL (≈ 337 µM)
CCOc1cc(C(=O)Nc2ccc(Br)cc2C(=O)O)cc(OCC)c1OCC | 32 µg/mL (≈ 70.7 µM)
COc1cc(OC)cc(C(=O)Nc2ccc(Br)cc2C(=O)O)c1 | 16 µg/mL (≈ 42.1 µM)
CCOc1ccc(C(=O)Nc2ccc(Br)cc2C(=O)O)cc1OCC | > 128 µg/mL
O=C(Nc1ccc(Br)cc1C(=O)O)c1ccc(F)cc1 | 64 µg/mL (≈ 189 µM)
O=C(Nc1ccc(Br)cc1C(=O)O)c1cccc(C(F)(F)F)c1 | 8 µg/mL (≈ 20.6 µM)
N#Cc1ccc(C(=O)Nc2ccc(Br)cc2C(=O)O)cc1 | 128 µg/mL (≈ 371 µM)
O=C(Nc1ccc(Br)cc1C(=O)O)c1cccc(OCc2cccc([N+](=O)[O-])c2)c1 | 16 µg/mL (≈ 34 µM)
Cc1cccc(C(=O)Nc2ccc(C#N)cc2C(=O)O)c1 | 32 µg/mL (≈ 114 µM)
O=C(Nc1ccc(Br)cc1C(=O)O)c1cccc(OCc2cccc(F)c2)c1 | 16 µg/mL (≈ 36 µM)

Compound | MIC
COc1ccc(C(=O)Nc2ccc(C#N)cc2C(=O)O)cc1F | 8 µg/mL (≈ 25.5 µM)
O=C(Nc1ccc(Br)cc1C(=O)O)c1cccc(OCc2ccncc2)c1 | > 128 µg/mL
O=C(Nc1ccc(Br)cc1C(=O)O)c1ccc(OCc2cccc(C(F)(F)F)c2)cc1 | 32 µg/mL (≈ 64.7 µM)
O=C(Nc1ccc(Br)cc1C(=O)O)c1cccc(OCc2cccc(C(F)(F)F)c2)c1 | 64 µg/mL (≈ 129 µM)
O=C(Nc1ccc(Br)cc1C(=O)O)c1ccc(OCC2CCCC2)cc1 | > 128 µg/mL
C#CC(CC)Oc1ccc(C(=O)Nc2ccc(Br)cc2C(=O)O)cc1 (stereo not shown) | > 128 µg/mL
O=C(Nc1ccc(Br)cc1C(=O)O)c1cccc(OCC2CCCC2)c1 | 128 µg/mL (≈ 306 µM)
CCN(CCOc1ccc(C(=O)Nc2ccc(Br)cc2C(=O)O)cc1)c1ccccc1 | 64 µg/mL (≈ 132 µM)
O=C(Nc1ccc(Br)cc1C(=O)O)c1ccc(OCCN2C(=O)CCC2=O)cc1 | > 128 µg/mL
Cc1ncc([N+](=O)[O-])n1CCOc1ccc(C(=O)Nc2ccc(Br)cc2C(=O)O)cc1 | 128 µg/mL (≈ 262 µM)
CN1CCCC1COc1ccc(C(=O)Nc2ccc(Br)cc2C(=O)O)cc1 (stereo not shown) | > 128 µg/mL
CC#CCOc1ccc(C(=O)Nc2ccc(Br)cc2C(=O)O)cc1 | 16 µg/mL (≈ 41.2 µM)
Cc1cc(C)n(COc2ccc(C(=O)Nc3ccc(Br)cc3C(=O)O)cc2)n1 | 64 µg/mL (≈ 144 µM)
CC(C)OCCOc1ccc(C(=O)Nc2ccc(Br)cc2C(=O)O)cc1 | > 128 µg/mL
O=C(Nc1ccc(Br)cc1C(=O)O)c1ccc(OCCSc2nc3ccccc3s2)cc1 | 64 µg/mL (≈ 121 µM)
O=C(Nc1ccc(Br)cc1C(=O)O)c1ccc(OCCc2ccccn2)cc1 | 128 µg/mL (≈ 290 µM)
O=C(Nc1ccc(Br)cc1C(=O)O)c1ccc(OC2CCOCC2)cc1 | 128 µg/mL (≈ 305 µM)
CSc1ccc(C(=O)Nc2ccc(C#N)cc2C(=O)O)cc1 | 0.5 µg/mL (≈ 1.6 µM)
O=C(Nc1ccc(Br)cc1C(=O)O)c1ccc(OCCN2C(=O)c3ccccc3C2=O)cc1 | 64 µg/mL (≈ 126 µM)
COc1cc(OC)cc(C(=O)Nc2ccc(C#N)cc2C(=O)O)c1 | 8 µg/mL (≈ 24.5 µM)
CC(C)(C)CCOc1ccc(C(=O)Nc2ccc(Br)cc2C(=O)O)cc1 | 64 µg/mL (≈ 152 µM)
N#Cc1ccc(NC(=O)c2ccc(F)cc2)c(C(=O)O)c1 | 128 µg/mL (≈ 450 µM)
N#Cc1ccc(NC(=O)c2cccc3ccccc23)c(C(=O)O)c1 | 16 µg/mL (≈ 50.6 µM)
CCOC(=O)C1CCC(Oc2ccc(C(=O)Nc3ccc(Br)cc3C(=O)O)cc2)CC1 (stereo not shown) | > 128 µg/mL
COCC1CCCN1S(=O)(=O)c1cccc(C(=O)Nc2ccc(C#N)cc2C(=O)O)c1 (stereo not shown) | 64 µg/mL (≈ 144 µM)
CC(C)(C)c1ccc(-c2ccc(C(=O)Nc3ccc(C#N)cc3C(=O)O)cc2)cc1 | 32 µg/mL (≈ 80.3 µM)
CC1CC(S(=O)(=O)c2cccc(C(=O)Nc3ccc(C#N)cc3C(=O)O)c2)CC(C)O1 (stereo not shown) | 16 µg/mL (≈ 36.2 µM)

Other lines, results leading:

MIC | Compound
128 µg/mL (≈ 233 µM) | COc1ccc(C(=O)Nc2ccc(Br)cc2C(=O)O)cc1S(=O)(=O)NCCc1ccc(N)cc1
32 µg/mL (≈ 62.1 µM) | O=C(Nc1ccc(Br)cc1C(=O)O)c1ccc(S(=O)(=O)NC2Cc3ccccc3C2)cc1
64 µg/mL (≈ 105 µM) | CN(C)c1ccc(CNS(=O)(=O)c2cc(C(=O)Nc3ccc(Br)cc3C(=O)O)ccc2Br)cc1
32 µg/mL (≈ 61.7 µM) | CCN(Cc1ccncc1)S(=O)(=O)c1ccc(C(=O)Nc2ccc(Br)cc2C(=O)O)cc1
64 µg/mL (≈ 120 µM) | CN(C)c1ccc(CNS(=O)(=O)c2cccc(C(=O)Nc3ccc(Br)cc3C(=O)O)c2)cc1
128 µg/mL (≈ 234 µM) | Cc1ccc(C(=O)Nc2ccc(Br)cc2C(=O)O)cc1S(=O)(=O)NCc1ccc(N(C)C)cc1
16 µg/mL (≈ 26.2 µM) | CN(C)c1ccc(CNS(=O)(=O)c2ccc(Br)c(C(=O)Nc3ccc(Br)cc3C(=O)O)c2)cc1
1 µg/mL (≈ 1.94 µM) | Cc1ccc(C(=O)Nc2ccc(Br)cc2C(=O)O)cc1S(=O)(=O)N1CCc2ccccc21
128 µg/mL (≈ 240 µM) | CN(C)c1ccc(CNS(=O)(=O)c2ccc(C(=O)Nc3ccc(Br)cc3C(=O)O)cc2)cc1
8 µg/mL (≈ 13.9 µM) | Cc1ccc(C(=O)Nc2ccc(Br)cc2C(=O)O)cc1S(=O)(=O)Nc1ccc(Cl)c2ccccc12
64 µg/mL (≈ 117 µM) | Cc1ccc(S(=O)(=O)Nc2ccc3c(c2)OCCO3)cc1C(=O)Nc1ccc(Br)cc1C(=O)O
4 µg/mL (≈ 7.53 µM) | COc1ccc(C(=O)Nc2ccc(Br)cc2C(=O)O)cc1S(=O)(=O)N1CCc2ccccc21
1 µg/mL (≈ 1.83 µM) | Cc1ccc(C(=O)Nc2ccc(Br)cc2C(=O)O)cc1S(=O)(=O)Nc1ccc2c(c1)OCCO2
16 µg/mL (≈ 30 µM) | O=C(Nc1ccc(Br)cc1C(=O)O)c1ccc(S(=O)(=O)Nc2ccc3c(c2)OCCO3)cc1
8 µg/mL (≈ 14.2 µM) | COc1ccc(C(=O)Nc2ccc(Br)cc2C(=O)O)cc1S(=O)(=O)Nc1ccc2c(c1)OCCO2
32 µg/mL (≈ 57.1 µM) | O=C(Nc1ccc(Br)cc1C(=O)O)c1cccc(S(=O)(=O)Nc2ccc(N3CCOCC3)cc2)c1
4 µg/mL (≈ 7.5 µM) | O=C(Nc1ccc(Br)cc1C(=O)O)c1cccc(S(=O)(=O)Nc2ccc3c(c2)OCCO3)c1
64 µg/mL (≈ 114 µM) | CCN(CC)c1ccc(NS(=O)(=O)c2cc(C(=O)Nc3ccc(Br)cc3C(=O)O)ccc2C)cc1
16 µg/mL (≈ 29.6 µM) | COc1ccc(C(=O)Nc2ccc(Br)cc2C(=O)O)cc1S(=O)(=O)Nc1ccc(Cl)cc1

MIC | Compound
128 µg/mL (≈ 234 µM) | CCN(CC)c1ccc(NS(=O)(=O)c2cccc(C(=O)Nc3ccc(Br)cc3C(=O)O)c2)cc1
1 µg/mL (≈ 1.82 µM) | Cc1ccc(C(=O)Nc2ccc(Br)cc2C(=O)O)cc1S(=O)(=O)N1CCc2ccc(Cl)cc21
64 µg/mL (≈ 102 µM) | CCN(CC)c1ccc(NS(=O)(=O)c2cc(C(=O)Nc3ccc(Br)cc3C(=O)O)ccc2Br)cc1
2 µg/mL (≈ 3.73 µM) | O=C(Nc1ccc(Br)cc1C(=O)O)c1cccc(S(=O)(=O)N2CCc3ccc(Cl)cc32)c1
32 µg/mL (≈ 58.6 µM) | CCN(CC)c1ccc(NS(=O)(=O)c2ccc(C(=O)Nc3ccc(Br)cc3C(=O)O)cc2)cc1
0.5 µg/mL (≈ 0.935 µM) | O=C(Nc1ccc(Br)cc1C(=O)O)c1ccc(S(=O)(=O)C2CCc3ccc(Cl)cc32)cc1 (stereo not shown)
32 µg/mL (≈ 88.1 µM) | CN(C)c1cccc(C(=O)Nc2ccc(Br)cc2C(=O)O)c1
64 µg/mL (≈ 192 µM) | Cc1cccc(C(=O)Nc2ccc(Br)cc2C(=O)O)c1
32 µg/mL (≈ 81.8 µM) | CCN(CC)c1ccc(C(=O)Nc2ccc(Br)cc2C(=O)O)cc1
32 µg/mL (≈ 80.8 µM) | O=C(Nc1ccc(Br)cc1C(=O)O)c1ccc(-c2ccccc2)cc1
32 µg/mL (≈ 88.1 µM) | CN(C)c1ccc(C(=O)Nc2ccc(Br)cc2C(=O)O)cc1
16 µg/mL (≈ 34 µM) | O=C(Nc1ccc(Br)cc1C(=O)O)c1ccc(OCc2cccc([N+](=O)[O-])c2)cc1
8 µg/mL (≈ 16 µM) | COc1cc(COc2ccc(C(=O)Nc3ccc(Br)cc3C(=O)O)cc2)ccc1[N+](=O)[O-]
32 µg/mL (≈ 72 µM) | O=C(Nc1ccc(Br)cc1C(=O)O)c1ccc(OCc2cccc(F)c2)cc1
> 128 µg/mL | O=C(Nc1ccc(Br)cc1C(=O)O)c1ccc(OCc2ccncc2)cc1
> 128 µg/mL | COC(=O)c1ccc(COc2ccc(C(=O)Nc3ccc(Br)cc3C(=O)O)cc2)cc1
64 µg/mL (≈ 132 µM) | O=C(Nc1ccc(Br)cc1C(=O)O)c1ccc(OCCc2cccc([N+](=O)[O-])c2)cc1
64 µg/mL (≈ 141 µM) | O=C(Nc1ccc(Br)cc1C(=O)O)c1ccc(OCCNc2ccccc2)cc1
